In ChEMBL document CHEMBL5154744, “Stereo-Defined Acyclic Nucleoside Phosphonates are Selective and Potent Inhibitors of Parasite 6-Oxopurine Phosphoribosyltransferases” (J Med Chem, 2022) one finds Activity and Ki data, which are given here for 22 molecules.

The test system of one data set is NHDF. Kind of data set: Cytotoxicity against human NHDF cells assessed as cell viability at 10 uM. The format is toxicity, cell-based.
Data set [1] concerns the target T1, Hypoxanthine-guanine phosphoribosyltransferase (Homo sapiens, UniProt P00492).
T1 sequence (P00492 whole entry): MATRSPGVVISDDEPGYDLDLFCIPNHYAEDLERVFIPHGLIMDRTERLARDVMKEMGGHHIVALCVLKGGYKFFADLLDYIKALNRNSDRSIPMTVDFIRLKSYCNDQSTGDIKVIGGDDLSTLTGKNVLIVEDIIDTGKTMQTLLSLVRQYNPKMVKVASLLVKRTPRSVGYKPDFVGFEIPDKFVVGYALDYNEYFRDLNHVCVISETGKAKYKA
Put plainly: Inhibition of human HGPRT using PRib-PP as substrate by spectrophotometric assay.

Data set [2] can be described thus: Inhibition of Plasmodium falciparum HGXPRT using PRib-PP as substrate by spectrophotometric assay.
Data set [3] is described as follows: Inhibition of His-tagged Trypanosoma brucei HGPRT1 expressed in Escherichia coli BL21 (DE3) cells using PRib-PP as substrate by spectrophotometric assay.
Data set [4] in a line: Inhibition of His-tagged Trypanosoma brucei HGXPRT expressed in Escherichia coli BL21 (DE3) cells using PRib-PP as substrate by spectrophotometric assay.
Data set [5] in a line: Inhibition of Plasmodium vivax HGPRT using PRib-PP as substrate by spectrophotometric assay.
The test system of the next data set is HeLa. Kind of data set: Cytotoxicity against human HeLa cells assessed as cell viability at 10 uM. The class given is toxicity, cell-based.

Turning to `Nc1nc2c(ncn2C[C@H](COCP(=O)([O-])[O-])OCC(O)CO)c(=O)[nH]1.[Na+].[Na+]` (stereo not given in full), the Activity entry in the data set on NHDF and in the data set with HeLa was “Non-Toxic” in each case. Besides, the inhibition constant (Ki) (as a rule, the equilibrium dissociation constant of an inhibitor or competing ligand from its target) was 4000 nM in data set [1]; 1000 nM in data set [2]; 500 nM in data set [3]; 2000 nM in data set [4]; 5000 nM in data set [5].
As for `Nc1nc2c(ncn2C[C@@H](COCP(=O)([O-])[O-])OC[C@H](O)P(=O)([O-])[O-])c(=O)[nH]1.[Na+].[Na+].[Na+].[Na+]`, the Activity result with NHDF and in the data set with HeLa was “Non-Toxic” throughout. Besides, the inhibition constant (Ki) in data set [1] was 100 nM; in data set [2], 50 nM; in data set [3] it was 2 nM; in data set [4] it was 30 nM; in data set [5], 20 nM.
For the molecule `O=c1[nH]cnc2c1ncn2C[C@@H](COCP(=O)([O-])[O-])OCC(O)CO.[Na+].[Na+]` (stereo not given in full), the Activity result in the data set with NHDF and in the data set with HeLa was “Non-Toxic” in each case. Moreover, the Ki in data set [2] amounted to 2400 nM; in data set [3] it was 1000 nM; in data set [4] it was 14000 nM; in data set [5], 13000 nM.
In the case of `O=C(CCP(=O)(O)O)N1CC(OCCP(=O)(O)O)[C@H](n2cnc3c(=O)[nH]cnc32)C1` (stereo not given in full), the figures for the Ki in data set [1], in data set [2] and in data set [5] were 20 nM, 14 nM and 80 nM, respectively.
Take `O=c1[nH]cnc2c1ncn2C[C@@H](COCP(=O)([O-])[O-])OCC(O)P(=O)([O-])[O-].[Na+].[Na+].[Na+].[Na+]` (stereo not given in full): the Activity result with NHDF and in the data set on HeLa was “Non-Toxic” throughout. Moreover, the Ki in data set [1] turned out to be 4000 nM; in data set [2], 400 nM; in data set [3] it was 30 nM; in data set [4] it was 30 nM; in data set [5] it was 200 nM.
As for `Nc1nc2c(ncn2C[C@H](COCP(=O)([O-])[O-])OCCCP(=O)([O-])[O-])c(=O)[nH]1.[Na+].[Na+].[Na+].[Na+]`, the Activity result in the data set on NHDF and with HeLa was “Non-Toxic” each time. The Ki in data set [1] was 400 nM; in data set [2], 800 nM; in data set [3], 40 nM; in data set [4] it was 60 nM; in data set [5], 700 nM.
As to `Nc1nc2c(ncn2C[C@@H](COCP(=O)([O-])[O-])OCCCP(=O)([O-])[O-])c(=O)[nH]1.[Na+].[Na+].[Na+].[Na+]`, the Activity result with NHDF and with HeLa was “Non-Toxic” throughout. Moreover, the Ki was 500 nM in data set [1]; 200 nM in data set [2]; 10 nM in data set [3]; 250 nM in data set [4]; 400 nM in data set [5].
For the molecule `O=c1[nH]cnc2c1ncn2C[C@@H](COCP(=O)([O-])[O-])OCCCP(=O)([O-])[O-].[Na+].[Na+].[Na+].[Na+]`, the Activity result in the data set on NHDF and in the data set on HeLa was “Non-Toxic” throughout. Also, the inhibitory constant (Ki) in data set [1] was found to be 22000 nM; in data set [2], 6000 nM; in data set [3] it was 400 nM; in data set [4] it was 450 nM.
Regarding `O=C(CCP(=O)(O)O)N1CC(OC[C@@H](O)P(=O)(O)O)[C@H](n2cnc3c(=O)[nH]cnc32)C1` (stereo not given in full), the Ki in data set [2] is 2 nM; in data set [5], 6 nM.
Consider `Nc1nc2c(ncn2C[C@@H](COCP(=O)([O-])[O-])OC[C@@H](O)P(=O)([O-])[O-])c(=O)[nH]1.[Na+].[Na+].[Na+].[Na+]`, for which the Activity result in the data set on NHDF and in the data set with HeLa was “Non-Toxic” each time. Besides, the Ki in data set [1] was determined as 70 nM; in data set [2], 30 nM; in data set [3] it was 2 nM; in data set [4] it was 20 nM; in data set [5] it was 20 nM.
Consider `O=c1[nH]cnc2c1ncn2CCCC(O)C(O)P(=O)(O)O` (stereo not given), for which the Ki was found to be 5000 nM in data set [1], 3000 nM in data set [2], 7000 nM in data set [3] and 6000 nM in data set [4].
Consider `Nc1nc2c(ncn2CCOCC(O)P(=O)(O)O)c(=O)[nH]1` (stereo not given), for which the results for the Ki in data set [1], in data set [2] and in data set [4] were 200 nM, 300 nM and 600 nM, respectively.
Consider `Nc1nc2c(ncn2C[C@H](COCP(=O)([O-])[O-])OCC(O)P(=O)([O-])[O-])c(=O)[nH]1.[Na+].[Na+].[Na+].[Na+]` (stereo not given in full), for which the Activity result with NHDF and with HeLa was “Non-Toxic” in each case. For the same molecule, the Ki amounted to 400 nM in data set [1]; 100 nM in data set [2]; 40 nM in data set [3]; 40 nM in data set [4]; 300 nM in data set [5].
With `O=c1[nH]cnc2c1ncn2CCC/C=C/P(=O)(O)O`, the inhibition constant (Ki) in data set [1] came out at 6000 nM; in data set [2], 13000 nM; in data set [3] it was 1000 nM; in data set [4], 12000 nM.
`O=c1[nH]cnc2c1ncn2C[C@H](COCP(=O)([O-])[O-])OCCCP(=O)([O-])[O-].[Na+].[Na+].[Na+].[Na+]`: the Activity result with NHDF and with HeLa was “Non-Toxic” throughout. Further, the values for the inhibitory constant (Ki) in data set [1], in data set [3] and in data set [4] were 300 nM, 1500 nM and 200 nM, respectively.
As to `O=c1[nH]cnc2c1ncn2CCOCC(O)P(=O)(O)O` (stereo not given), the inhibitory constant (Ki) in data set [1] was found to be 2000 nM; in data set [2], 700 nM; in data set [3], 600 nM; in data set [4] it was 100 nM.
Take `Nc1nc2c(ncn2CC(COCP(=O)(O)O)COCP(=O)(O)O)c(=O)[nH]1`: the inhibition constant (Ki) came out at 70 nM in data set [2] and 600 nM in data set [5].
With `O=c1[nH]cnc2c1ncn2C[C@H](COCP(=O)([O-])[O-])OCC(O)CO.[Na+].[Na+]` (stereo not given in full), the Activity result in the data set with NHDF and with HeLa was “Non-Toxic” each time. Further, the inhibition constant (Ki) stood at 2400 nM in data set [3] and 9000 nM in data set [4].
Turning to `O=c1[nH]cnc2c1ncn2C[C@H](COCP(=O)([O-])[O-])OCC(O)P(=O)([O-])[O-].[Na+].[Na+].[Na+].[Na+]` (stereo not given in full), the Activity entry in the data set with NHDF and in the data set on HeLa was “Non-Toxic” each time. In addition, the inhibitory constant (Ki) in data set [1] came to 2000 nM; in data set [3], 300 nM; in data set [4], 100 nM; in data set [5], 700 nM.
Take `Nc1nc2c(ncn2C[C@@H](COCP(=O)([O-])[O-])OCC(O)CO)c(=O)[nH]1.[Na+].[Na+]` (stereo not given in full): the Activity result in the data set on NHDF and in the data set with HeLa was “Non-Toxic” in each case. Moreover, the Ki in data set [1] is 9000 nM; in data set [2], 1000 nM; in data set [3], 300 nM; in data set [4], 2000 nM; in data set [5], 2000 nM.
Turning to `Nc1nc2c(ncn2C[C@@H](COCCOP(=O)(O)O)COCP(=O)(O)O)c(=O)[nH]1`, the Ki in data set [1] came out at 6 nM; in data set [2], 70 nM; in data set [5], 200 nM.
In the case of `Nc1nc2c(ncn2C[C@@H](COCP(=O)([O-])[O-])OCC(O)P(=O)([O-])[O-])c(=O)[nH]1.[Na+].[Na+].[Na+].[Na+]` (stereo not given in full), the Activity entry with NHDF and in the data set on HeLa was “Non-Toxic” throughout. For the same molecule, the Ki in data set [1] was 100 nM; in data set [2], 30 nM; in data set [3], 5 nM; in data set [4], 20 nM; in data set [5] it was 10 nM.
